Here are results for 26 compounds from article PMC12668310, “High‐Throughput Synthesis and Screening of a Cyanimide Library Identifies Selective Inhibitors of ISG15‐Specific Protease mUSP18” (Angewandte Chemie (International Ed. in English), 2025).

Like-named read-outs stand apart in the source and are kept apart here.

This assay concerns the target T1, mUSP18 (Mus musculus, UniProt Q9WTV6).
T1 construct: (46-368); His-tag (N); made in house
T1 sequence (Q9WTV6 46-368): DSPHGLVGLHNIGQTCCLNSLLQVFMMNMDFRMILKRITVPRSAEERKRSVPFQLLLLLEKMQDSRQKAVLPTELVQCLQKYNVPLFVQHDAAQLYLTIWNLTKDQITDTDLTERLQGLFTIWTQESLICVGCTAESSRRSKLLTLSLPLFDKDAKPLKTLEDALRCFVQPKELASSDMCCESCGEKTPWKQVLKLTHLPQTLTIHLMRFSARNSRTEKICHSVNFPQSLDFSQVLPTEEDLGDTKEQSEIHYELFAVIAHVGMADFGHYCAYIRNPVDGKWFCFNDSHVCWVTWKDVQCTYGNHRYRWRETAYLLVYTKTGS
Description: High-throughput screening, ISG15ct-RhoMP, single dose 1.25 µM. The format is biochemical, murine. The note with it: for inhibition at 1.25 µM: mUSP18 %inhibition; for inhibition of mUSP18 by individual CA's and coupling reagents: screened with and without DIC/HOBt.

[1] abbreviates: carboxylic acid (CA) building block alone, read-out: %inh CA only.
The mark [2] stands for this setting: carboxylic acid (CA) with coupling reagents DIC/HOBT, read-out: %inh CA + DIC/HOBT.

As for `O=C(O)[1C@@H]1CCCO[1C@H]1c1ccccc1` [CA370], the inhibition at 1.25 µM by setting is: under setting [1], 2.12%; under setting [2], 9.77%.

Take `O=C(O)C1CCCN(S(=O)(=O)c2cccs2)C1` (stereo not drawn) [CA371]: the inhibition at 1.25 µM runs as follows: under setting [1], 1.66%; under setting [2], 2.42%.

`O=C(O)c1ccc(Cn2cc(Cl)c(C(F)(F)F)n2)o1` [CA372]: the inhibition at 1.25 µM reads like this: under setting [1], 5.98%; under setting [2], 8.2%.

With `COc1ccc(C(=O)O)cc1S(=O)(=O)N(C)CCc1cccnc1` [CA373], the inhibition at 1.25 µM runs as follows: under setting [1], 0.43%; under setting [2], 4.83%.

For `O=C(O)CC1CCN(c2ccc(C(F)(F)F)cn2)CC1` [CA374], the inhibition at 1.25 µM runs as follows: under setting [1], 0.78%; under setting [2], 1.18%.

In the case of `O=C(O)c1cccnc1-n1cncn1` [CA375], the inhibition at 1.25 µM under setting [1] was -1.76% and the inhibition at 1.25 µM under setting [2] is 7.93%.

Take `CCc1ccc(C(=O)N2CCC(C(=O)O)CC2)o1` [CA376]: the inhibition at 1.25 µM is, setting by setting: under setting [1], 6.04%; under setting [2], -8.39%.

On to `O=C(O)c1cnn(-c2ccccc2)n1` [CA377], for which the inhibition at 1.25 µM was 2.74% under setting [1] and -10.8% under setting [2].

As to `Cc1nc(-c2ccsc2)ccc1C(=O)O` [CA378], the inhibition at 1.25 µM by setting is: under setting [1], 1.59%; under setting [2], -10.4%.

Consider `CN(C)S(=O)(=O)c1ccc(N2CCCCC2)c(C(=O)O)c1` [CA379], for which the inhibition at 1.25 µM was -2.55% under setting [1] and -9.97% under setting [2].

In the case of `O=C(O)c1cnc(Cc2ccc(F)cc2)s1` [CA380], the inhibition at 1.25 µM was -5.77% under setting [1] and -9.23% under setting [2].

Regarding `Cc1cc(C)cc(N(CCC(=O)O)S(=O)(=O)c2ccc(Cl)cc2)c1` [CA381], the inhibition at 1.25 µM under setting [1] came out at 1.09% and the inhibition at 1.25 µM under setting [2] is -13.7%.

On to `O=C(O)c1csc(CCc2ccccc2)n1` [CA382], for which the inhibition at 1.25 µM is -3.25% under setting [1] and -8.03% under setting [2].

Regarding `O=C(O)c1ccc(-c2nnco2)cc1` [CA383], the inhibition at 1.25 µM reads like this: under setting [1], -4.57%; under setting [2], -8.55%.

`O=C(O)c1ccccc1Cn1cncn1` [CA384]: the inhibition at 1.25 µM is, setting by setting: under setting [1], -2.51%; under setting [2], -6.89%.

Take `O=C(O)Cc1cnn(Cc2ccccc2)c1` [CA385]: the inhibition at 1.25 µM was -2.43% under setting [1] and -10.4% under setting [2].

In the case of `CN(CC1CC1)c1ccc(C(F)(F)F)cc1C(=O)O` [CA386], the inhibition at 1.25 µM runs as follows: under setting [1], -2.54%; under setting [2], -7.62%.

Regarding `CNS(=O)(=O)c1ccc(-c2ccc(Cl)c(Cl)c2)c(C(=O)O)c1` [CA387], the inhibition at 1.25 µM by setting is: under setting [1], -2.91%; under setting [2], -4.58%.

In the case of `O=C(O)Cc1csc(N2CCCC2=O)n1` [CA388], the inhibition at 1.25 µM runs as follows: under setting [1], -10.4%; under setting [2], -3.35%.

As to `CC1CN(S(=O)(=O)c2ccc(C(=O)O)cc2)CC(C)O1` (stereo not drawn) [CA389], the inhibition at 1.25 µM reads like this: under setting [1], -6.73%; under setting [2], -5.95%.

`Cc1ncsc1C(=O)N(C)c1ccccc1C(=O)O` [CA390]: the inhibition at 1.25 µM is -7.59% under setting [1] and -4.7% under setting [2].

Take `O=C(O)Cc1ccc(-n2cccc2)cc1` [CA391]: the “inhibition of mUSP18 by individual CA's and coupling reagents” value is on record as “could inhibit mUSP18”. The inhibition at 1.25 µM under setting [1] was -10.9%. Further, under setting [2], the inhibition at 1.25 µM was 63.9%.

On to `O=C(O)c1sccc1-n1cccc1` [CA392], for which the “inhibition of mUSP18 by individual CA's and coupling reagents” value was “could inhibit mUSP18”. In addition, the inhibition at 1.25 µM under setting [1] was found to be 71.2%. For the same compound, the inhibition at 1.25 µM under setting [2] amounted to 56.5%.

Consider `O=C(O)c1coc(C#Cc2ccccc2)c1` [CA393], for which the inhibition at 1.25 µM was -1.56% under setting [1] and -1.99% under setting [2].

Regarding `O=C(O)c1cccc(Oc2ccc(Cl)cc2)n1` [CA394], the inhibition at 1.25 µM under setting [1] was -5.76% and the inhibition at 1.25 µM under setting [2] is -1.48%.

`O=C(O)c1cccnc1Oc1ccccc1Br` [CA395]: the inhibition at 1.25 µM is, setting by setting: under setting [1], -7.15%; under setting [2], -4.5%.
